# Experimental data taken from ChEMBL document CHEMBL1201862, “PubChem BioAssay data set” (2004).
#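 Compound exposure: 48 hours, 5 concentrations, 96-well plates. Abbreviation: GI50, concentration required for 50% inhibition of growth.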 The source made the active and inactive calls. Rule as the data show it: active = GI50 up to about 1.1 µM and inactive = higher.
# Assays:
# Assay in all cases: NCI tumour cell line growth inhibition, 48 h
# CCRF-CEM = test system: CCRF-CEM
# OVCAR-5 = test system: OVCAR-5
# SK-MEL-28 = test system: SK-MEL-28
# RPMI-8226 = test system: RPMI-8226
# SK-MEL-5 = test system: SK-MEL-5
# HOP-62 = test system: HOP-62
# NCI-H226 = test system: NCI-H226
# T47D = test system: T47D
# MDA-N = test system: MDA-N
# SF-539 = test system: SF-539
# NCI-H23 = test system: NCI-H23
# HCC 2998 = test system: HCC 2998
# SNB-75 = test system: SNB-75
# SK-OV-3 = test system: SK-OV-3
# MOLT-4 = test system: MOLT-4
# MDA-MB-435 = test system: MDA-MB-435
# IGROV-1 = test system: IGROV-1
# SNB-19 = test system: SNB-19
# PC-3 = test system: PC-3
# M14 = test system: M14
# UO-31 = test system: UO-31
# SR = test system: SR
# SF-268 = test system: SF-268
# NCI/ADR-RES = test system: NCI/ADR-RES
# A549 = test system: A549
# MCF7 = test system: MCF7
# SK-MEL-2 = test system: SK-MEL-2
# KM12 = test system: KM12
# ACHN = test system: ACHN
# CAKI-1 = test system: CAKI-1
# A498 = test system: A498
# OVCAR-8 = test system: OVCAR-8
# Malme-3M = test system: Malme-3M
# NCI-H522 = test system: NCI-H522
# HL-60 = test system: HL-60
# SW-620 = test system: SW-620
# 786-0 = test system: 786-0
# HT-29 = test system: HT-29
# TK-10 = test system: TK-10
# OVCAR-4 = test system: OVCAR-4
# COLO 205 = test system: COLO 205
# DU-145 = test system: DU-145
# MDA-MB-231 = test system: MDA-MB-231
# LOX IMVI = test system: LOX IMVI
# HCT-116 = test system: HCT-116
# EKVX = test system: EKVX
# SF-295 = test system: SF-295
# SN12C = test system: SN12C
# U-251 = test system: U-251
# RXF 393 = test system: RXF 393
# UACC-257 = test system: UACC-257
# HCT-15 = test system: HCT-15
# Hs-578T = test system: Hs-578T
# K562 = test system: K562
# UACC-62 = test system: UACC-62
# HOP-92 = test system: HOP-92
# NCI-H460 = test system: NCI-H460
# OVCAR-3 = test system: OVCAR-3
# BT-549 = test system: BT-549
smiles,measurement,setting,value
CCCC1C(CC)C(NC)C(C#N)(C#N)C1(C#N)C#N (configuration not stated),GI50,CCRF-CEM,13.1 µM (inactive)
same,GI50,OVCAR-5,33.7 µM (inactive)
same,GI50,SK-MEL-28,30.2 µM (inactive)
same,GI50,RPMI-8226,17.1 µM (inactive)
same,GI50,SK-MEL-5,12.1 µM (inactive)
same,GI50,HOP-62,15 µM (inactive)
same,GI50,NCI-H226,2.88 µM (inactive)
same,GI50,T47D,14.5 µM (inactive)
same,GI50,MDA-N,16 µM (inactive)
same,GI50,SF-539,16.8 µM (inactive)
same,GI50,NCI-H23,21.4 µM (inactive)
same,GI50,HCC 2998,18 µM (inactive)
same,GI50,SNB-75,10 µM (inactive)
same,GI50,SK-OV-3,> 100 µM (inactive)
same,GI50,MOLT-4,24.1 µM (inactive)
same,GI50,MDA-MB-435,25.3 µM (inactive)
same,GI50,IGROV-1,15.7 µM (inactive)
same,GI50,SNB-19,22.5 µM (inactive)
same,GI50,PC-3,18.1 µM (inactive)
same,GI50,M14,35.6 µM (inactive)
same,GI50,UO-31,14.6 µM (inactive)
same,GI50,SR,16.9 µM (inactive)
same,GI50,SF-268,16.5 µM (inactive)
same,GI50,NCI/ADR-RES,17.9 µM (inactive)
same,GI50,A549,34.8 µM (inactive)
same,GI50,MCF7,23.5 µM (inactive)
same,GI50,SK-MEL-2,18.9 µM (inactive)
same,GI50,KM12,16.4 µM (inactive)
same,GI50,ACHN,18.1 µM (inactive)
same,GI50,CAKI-1,11.4 µM (inactive)
same,GI50,A498,15.6 µM (inactive)
same,GI50,OVCAR-8,20.7 µM (inactive)
same,GI50,Malme-3M,21.2 µM (inactive)
same,GI50,NCI-H522,13.9 µM (inactive)
same,GI50,HL-60,20.4 µM (inactive)
same,GI50,SW-620,36.8 µM (inactive)
same,GI50,786-0,15.4 µM (inactive)
same,GI50,HT-29,13.6 µM (inactive)
same,GI50,TK-10,16.9 µM (inactive)
same,GI50,OVCAR-4,28.2 µM (inactive)
same,GI50,COLO 205,12.8 µM (inactive)
same,GI50,DU-145,14.2 µM (inactive)
same,GI50,MDA-MB-231,15.2 µM (inactive)
same,GI50,LOX IMVI,16.3 µM (inactive)
same,GI50,HCT-116,15.1 µM (inactive)
same,GI50,EKVX,25.2 µM (inactive)
same,GI50,SF-295,17.2 µM (inactive)
same,GI50,SN12C,15.1 µM (inactive)
same,GI50,U-251,28.1 µM (inactive)
same,GI50,RXF 393,13.1 µM (inactive)
same,GI50,UACC-257,16.7 µM (inactive)
same,GI50,HCT-15,13.2 µM
same,GI50,Hs-578T,25.9 µM (inactive)
same,GI50,K562,23.7 µM (inactive)
same,GI50,UACC-62,17.5 µM (inactive)
same,GI50,HOP-92,14 µM (inactive)
NS(=O)(=O)c1ccc(CNc2nc(-c3cccs3)nc3ccc(I)cc23)cc1,GI50,OVCAR-5,19.2 µM (inactive)
same,GI50,SK-MEL-28,21.3 µM (inactive)
same,GI50,RPMI-8226,18.6 µM (inactive)
same,GI50,SK-MEL-5,14.1 µM (inactive)
same,GI50,HOP-62,21.4 µM (inactive)
same,GI50,NCI-H226,17.9 µM (inactive)
same,GI50,T47D,0.222 µM (active)
same,GI50,MDA-N,19.5 µM (inactive)
same,GI50,NCI-H460,15 µM (inactive)
same,GI50,SF-539,11.2 µM (inactive)
same,GI50,NCI-H23,17.9 µM (inactive)
same,GI50,HCC 2998,13.8 µM (inactive)
same,GI50,SNB-75,21.6 µM (inactive)
same,GI50,SK-OV-3,22.6 µM (inactive)
same,GI50,MOLT-4,21.9 µM (inactive)
same,GI50,MDA-MB-435,14.6 µM (inactive)
same,GI50,IGROV-1,12.2 µM (inactive)
same,GI50,SNB-19,17.4 µM (inactive)
same,GI50,PC-3,19.4 µM (inactive)
same,GI50,M14,15.1 µM (inactive)
same,GI50,UO-31,2.11 µM (inactive)
same,GI50,SR,15 µM (inactive)
same,GI50,SF-268,23.1 µM (inactive)
same,GI50,NCI/ADR-RES,26.2 µM (inactive)
same,GI50,A549,12.5 µM (inactive)
same,GI50,MCF7,0.573 µM (active)
same,GI50,KM12,8.57 µM (inactive)
same,GI50,ACHN,18.4 µM (inactive)
same,GI50,CAKI-1,6.15 µM (inactive)
same,GI50,OVCAR-8,18.4 µM (inactive)
same,GI50,Malme-3M,14.7 µM (inactive)
same,GI50,NCI-H522,14.7 µM (inactive)
same,GI50,SW-620,31.5 µM (inactive)
same,GI50,786-0,17.5 µM (inactive)
same,GI50,HT-29,19.4 µM (inactive)
same,GI50,TK-10,9.16 µM (inactive)
same,GI50,OVCAR-4,10.7 µM (inactive)
same,GI50,COLO 205,16.1 µM (inactive)
same,GI50,DU-145,14.9 µM (inactive)
same,GI50,OVCAR-3,11.2 µM (inactive)
same,GI50,LOX IMVI,14.8 µM (inactive)
same,GI50,HCT-116,14.9 µM (inactive)
same,GI50,EKVX,3.85 µM (inactive)
same,GI50,BT-549,12.7 µM (inactive)
same,GI50,SF-295,17.9 µM (inactive)
same,GI50,SN12C,22.9 µM (inactive)
same,GI50,U-251,18.1 µM (inactive)
same,GI50,RXF 393,19.6 µM (inactive)
same,GI50,HCT-15,13.1 µM
same,GI50,UACC-62,16.5 µM (inactive)
same,GI50,HOP-92,16 µM (inactive)
